According to paper PMC10291556 (Journal of Medicinal Chemistry, 2023):

Assays:
[1] = system: HeLa cells; experiment: Glucose consumption; type: cell-based, human; conditions: 24 h, IC50 concentrations
Protocol: Figure 3 (A) Lactate production. Relative lactate concentration in medium following a 6 h treatment of HeLa cells with the investigated compounds at concentrations corresponding to 5× IC50. […] Data represents mean ± SD, n = 2–4; asterisks indicate a statistically significant difference from the untreated control (*p < 0.01, **p < 0.005, ***, ***p < 0.001).
Glucose concentration in the culture medium prior to and after the treatment was determined with an Amplex Red Glucose/Glucose Oxidase Assay Kit (Invitrogen) following the producer’s protocol. Glucose consumption was normalized to final cell counts. The glucose amount consumed by the non-treated control was taken at 100%.

[2] = system: HeLa cells; experiment: Mitochondrial membrane potential (TMRE, flow cytometry); type: cell-based, human; conditions: 10× IC50, 1 h, vs untreated control
Protocol: Figure 4 Changes in the mitochondrial membrane potential Δψm in HeLa cells. The cells were treated with Pt compounds at the concentrations corresponding to 10× IC50 for 1 h and subsequently stained with TMRE. The fluorescence was measured by flow cytometry. Data represents mean ± SD from three independent experiments, *p < 0.01.
HeLa cells were seeded (6-well plates, 3 × 10^5 cells/well), grown overnight, and then treated with the tested compounds for 1 h. The medium was removed, and a fresh medium containing TMRE (Thermo Fisher Scientific) at a final concentration of […] in 500 μL was added. The cells were incubated for 30 min at 37 °C and then harvested using trypsin. TMRE fluorescence was measured with a fluorescence-activated cell sorting (FACS) Verse flow cytometer (Becton Dickinson), and the data were analyzed using the ModFit LT 4.1 (Verity Software House) software. The experiment was performed in triplicate.

[3] = system: DNA isolated from HeLa cells; experiment: Pt associated with DNA isolated from treated HeLa cells; type: cell-based, human; conditions: 1 µM compound, 6 h, mean ± SD
Text: page 16: Table S1: […] concentration of tested compounds for 6 ha. […] Figure S19: A. Representative histograms obtained by flow cytometric analysis of calreticulin exposure in HeLa cells treated with indicated compounds. B. An example of gating DAPI negative population. Only DAPI-negative cells were taken for the evaluation.

[4] = Partition coefficient, shake-flask method; type: physicochemical; conditions: octanol/water
Protocol: The “shake flask” method was used to measure the partition coefficients (P) of platinum compounds. The compounds were dissolved in octanol-saturated water (OSW) containing 200 mM NaCl. […] After careful separation of the layers with a fine-tip pipet, the Pt content in individual phases was determined by flameless atomic absorption spectrometry. The partition coefficients were calculated as the concentration ratio of the compound in the octanol layer to that in the aqueous layer, log P = log([Pt]WSO/[Pt]OSW).

[5] = system: COX-2 in HeLa cells; experiment: Western blotting of COX-2; type: cell-based, human; conditions: 24 h, 1×, 3× IC50, Western blot
Protocol: (B) Quantitative evaluation of Western blotting data; the relative expression of COX-2 normalized to GAPDH. Data represents the mean ± SD of two experiments. The stars indicate the statistical significance of difference vs control determined with the Student t-test (*p < 0.05, **p < 0.01, ***p < 0.001).
HeLa cells were seeded in 60 mm dishes at a density of 3 × 10^5 cells/dish and cultured for 20 h. The cells were then treated with the tested compounds at concentrations indicated in the text. After 24 h of treatment, the cells were scraped, washed, and pelleted. […] 4–20% SDS-PAGE (sodium dodecyl sulfate-polyacrylamide gel electrophoresis) (Mini-PROTEAN TGX Precast Gel) was used to resolve the proteins. After transferring to the polyvinylidene fluoride membrane, the proteins were detected using appropriate antibodies: anti-GAPDH antibody (mouse, Sigma-Aldrich), Anti-COX-2 (rabbit, Abcam), Anti-α-, β-, or γ-tubulin (all rabbit, Abcam), Anti-β-actin (mouse, Abcam), Goat Anti-Rabbit IgG(HRP) (Abcam; HRP = horseradish peroxidase), and Goat Anti-Mouse IgG(HRP) (ThermoFisher Scientific). SignalFire ECL Reagent (A + B) was used as a substrate for HRP, and the luminescence was recorded with Amersham Imager 680. The densities in the images were assessed with the Aida image analysis software.

[6] = system: HeLa cells; experiment: Re-adhesion assay; type: cell-based, human; conditions: 10× IC50, 1 h
Protocol: Figure 7 (A–E) Wound healing assay. The monolayer of HeLa cells was scratched with a 10 μL tip, and a starving medium containing the tested complexes was added. The shots were taken at times 0 and 24 h. (A) Control, non-treated cells; (B) cells treated with complex 3; (C) cells treated with complex 4. […] (E) Evaluation of wound healing assay. Bars represent gap size vs. Control (100%), following a 24 h incubation with the investigated compounds. Light gray bars: complex 3; dark gray bars: complex 4; black bar: complex 2. (F) Re-adhesion assay. […] Following trypsinization, the cells were resuspended in Dulbecco’s modified Eagle medium (DMEM), counted, left to reconstitute adhesive membrane proteins for 30 min, and re-seeded at the density of 3× 10^4 cells/100 μL/well. After 30 min of incubation at 37 °C, the re-adhesion activity was determined as described in the Experimental Section. […]
HeLa cells were grown in 6-well plates for 24 h. […] Following the treatment, the cells were trypsinized, washed, and resuspended in fresh serum-free medium, counted, and left at room temperature for 30 min to allow surface receptor reconstitution. […] The number of adhered cells was determined with sulforhodamine B (SRB) assay. […] The bound SRB was dissolved in 10 mM Tris base (pH 10.5), and the absorbance was recorded at 570 nm with an Absorbance Reader (SUNRISE TECAN, SCHOELLER). […]

| Compound | glucose consumption [1] | mitochondrial membrane potential Δψm (TMRE fluorescence) [2] | amount of Pt associated with DNA [3] | log P [4] | intracellular level of COX-2 protein [5] | re-adhesion to the growth surface [6] |
| --- | --- | --- | --- | --- | --- | --- |
| Cc1c(C)c2c3c4c1=CC=C[N]4[Pt][N]3C=CC=2.NCCNC(=O)Cc1ccccc1Nc1c(Cl)cccc1Cl.NCCNC(=O)Cc1ccccc1Nc1c(Cl)cccc1Cl.N[C@H]1CCCC[C@@H]1N [complex 4, Pt^IV56MeSS(DCF)2] | reduction in glucose consumption | significant (p < 0.01) decrease in TMRE fluorescence | 4.6 ± 0.3 pg Pt/µg DNA | –1.4 ± 0.1 | able to reduce the intracellular level of COX-2 protein | lower the ability of HeLa cells to re-adhere to the growth surface |
| Cc1c(C)c2c3c4c1=CC=C[N]4[Pt]([Cl])[N]3C=CC=2.NCCNC(=O)Cc1ccccc1Nc1c(Cl)cccc1Cl.N[C@H]1CCCC[C@@H]1N [complex 3, Pt(IV)56MESSenDCFCl] | reduction in glucose consumption | significant (p < 0.01) decrease in TMRE fluorescence | 2.3 ± 0.2 pg Pt/µg DNA | –1.7 ± 0.1 | able to reduce the intracellular level of COX-2 protein | lower the ability of HeLa cells to re-adhere to the growth surface |
